Source: US8309685B2 (Celgene Avilomics Research, Inc., priority 2007, dated 2012)

Columns and labels:
[1] = biological target: T1, wild type HCV NS3/4A 1b protease enzyme (Hepatitis C virus genotype 1b, UniProt P26663); experiment: HCV Protease FRET Assay (IC50_APP), wild type; format: biochemical; details: read-out: IC50_APP, WT; apparent IC50, wild type NS3/4A 1b
T1 construct: 10× stocks of NS3/4A protease enzyme from Bioenza (Mountain View, Calif.); purchased Bioenza (Mountain View, Calif.)
Description: (§1) HCV Protease FRET Assay for WT and Mutated NS3/4A 1b Enzymes (IC50—APP).
(§2) The following protocol was used to generate “apparent” IC50 (IC50—APP) values as depicted in Table 6, below. […] 5 μL of each enzyme were added to Corning (#3575) 384-well, black, microtiter plates (Corning, N.Y.) after spotting a 0.5 μL volume of 50% DMSO and serially diluted compounds prepared in 50% DMSO. Protease reactions were immediately started after enzyme addition with the addition of 45 μL of the FRET substrate and monitored for 60-90 minutes at λex485/λem520 in a Synergy^4 plate reader from BioTek (Winooski, Vt.). At the conclusion of each assay, progress curves from each well were examined for linear reaction kinetics and fit statistics (R^2, 95% confidence intervals, absolute sum of squares).
(§3) The compound numbers correspond to the compound numbers in Table 3. […] ;

[2] = biological target: T2, A156T mutant of the HCV NS3/4A 1b protease enzyme (Hepatitis C virus genotype 1b, UniProt P26663, A1182T); experiment: HCV Protease FRET Assay (IC50_APP), A156T mutant; format: biochemical; details: apparent IC50, A156T mutant; read-out: IC50_APP, HCV A156T
T2 construct: 10× stocks of NS3/4A protease enzyme from Bioenza (Mountain View, Calif.); purchased Bioenza (Mountain View, Calif.)
Description: as §1, §2, §3

[3] = biological target: T3, D168A mutant of the HCV NS3/4A 1b protease enzyme (Hepatitis C virus genotype 1b, UniProt P26663, D1194A); experiment: HCV Protease FRET Assay (IC50_APP), D168A mutant; format: biochemical; details: apparent IC50, D168A mutant; read-out: IC50_APP, HCV D168A
T3 construct: 10× stocks of NS3/4A protease enzyme from Bioenza (Mountain View, Calif.); purchased Bioenza (Mountain View, Calif.)
Description: as §1, §2, §3

[4] = test system: HCV RNA replicon in cell line ET (luc-ubi-neo/ET), human Huh7 hepatoma; experiment: Method A: HCV RNA replicon antiviral assay (luciferase, ET cell line); format: cell-based, Hepatitis C virus; details: Hepatitis C virus, Huh-7, assay described in Example 22; for IC50: read-out: Replicon (IC50)
Description: The compounds were assayed to evaluate the antiviral activity and cytotoxicity of compounds in vitro using HCV RNA replicons. This assay used the cell line ET (luc-ubi-neo/ET), which is a human Huh7 hepatoma cell line that contains an HCV RNA replicon with a stable luciferase (Luc) reporter and three cell culture-adaptive mutations. […]
The ET cell line was grown in Dulbecco's modified essential media (DMEM), 10% fetal bovine serum (FBS), 1% penicillin-streptomycin (pen-strep), 1% glutamine, 250 μg/ml G418 in a 5% CO2 incubator at 37° C. All cell culture reagents were obtained from Mediatech (Manassas, Va.). Cells were trypsinized (1% trypsin:EDTA) and plated out at 5×10^3 cells/well in white 96-well assay plates (Costar) dedicated to cell number (cytotoxicity) or antiviral activity assessments. Drugs were added at six 3-fold concentrations each and the assay was run in DMEM, 5% FBS, 1% pen-strep, 1% glutamine. Human interferon alpha-2b (PBL Biolabs, New Brunswick, N.J.) was included in each run as a positive control compound. Cells were processed 72 hr post drug addition when the cells are still subconfluent. Antiviral activity was measured by analyzing replicon-derived luciferase activity using the Steady-Glo Luciferase Assay System (Promega, Madison, Wis.) according to manufacturer's instruction. The number of cells in each well was determined by CytoTox-1 reagent (Promega). Compound profile was derived by calculating applicable EC50 (effective concentration inhibiting virus replication by 50%), EC90 (effective concentration inhibiting virus replication by 90%), IC50 (concentration decreasing cell viability by 50%) and SI50 (selective index: […]) values.

| SMILES | IC50 [1] | IC50 [2] | IC50 [3] | IC90 [4] | IC50 [4] |
| --- | --- | --- | --- | --- | --- |
| C=C[C@@H]1C[C@]1(NC(=O)[C@@H]1CC(Oc2cc(-c3ccccc3)nc3cc(OC)ccc23)CN1C(=O)OC(C)(C)C)C(=O)NS(=O)(=O)C1CC1 (some centres unmarked) [Compound I-62] | < 0.01 µM | 0.1 to 1 µM | 1 to 10 µM | 0.1 to 1 µM | 0.01 to 0.1 µM |
| C=C[C@@H]1C[C@]1(NC(=O)[C@@H]1C[C@@H](Oc2cc(-c3ccccc3)nc3cc(OC)ccc23)CN1C(=O)CNC(=O)/C=C/C)C(=O)NS(=O)(=O)C1CC1 [Compound I-57, (2S,4R)-1-(2-(E)-but-2-enamidoacetyl)-N-((1R,2S)-1-(cyclopropylsulfonylcarbamoyl)-2-vinylcyclopropyl)-4-(7-methoxy-2-phenylquinolin-4-yloxy)pyrrolidine-2-carboxamide] | 0.1 to 1 µM | – | 1 to 10 µM | – | – |
| C=C[C@@H]1C[C@]1(NC(=O)[C@@H]1C[C@@H](Oc2nccc3ccccc23)CN1C(=O)[C@H](CCC(=O)C=C(C)C)NC(=O)OC(C)(C)C)C(=O)NS(=O)(=O)C1CC1 [Compound I-86, tert-butyl-(S)-1-((2S,4R)-2-((1R,2S)-1-(cyclopropylsulfonylcarbamoyl)-2-vinylcyclopropylcarbamoyl)-4-(isoquinolin-1-yloxy)pyrrolidin-1-yl)-7-methyl-1,5-dioxooct-6-en-2-ylcarbamate] | < 0.01 µM | 0.1 to 1 µM | 0.1 to 1 µM | 0.01 to 0.1 µM | < 0.01 µM |
| C=CC(=O)N[C@H](C(=O)N1C[C@H](Oc2cc(-c3ccccc3)nc3cc(OC)ccc23)C[C@H]1C(=O)N[C@]1(C(=O)NS(=O)(=O)c2ccccc2)C[C@H]1C=C)C(C)C [Compound I-60, (2S,4R)-1-((S)-2-acrylamido-3-methylbutanoyl)-N-((1R,2S)-1-(phenylylsulfonylcarbamoyl)-2-vinylcyclopropyl)-4-(7-methoxy-2-phenylquinolin-4-yloxy)pyrrolidine-2-carboxamide] | 0.01 to 0.1 µM | 0.1 to 1 µM | 1 to 10 µM | 0.1 to 1 µM | 0.01 to 0.1 µM |
| C=CC(=O)N[C@@H](C(=O)N1C[C@H](Oc2cc(-c3ccccc3)nc3cc(OC)ccc23)C[C@H]1C(=O)N[C@]1(C(=O)NS(=O)(=O)C2CC2)C[C@H]1C=C)C(C)C [Compound I-56, (2S,4R)-1-((R)-2-acrylamido-3-methylbutanoyl)-N-((1R,2S)-1-(cyclopropylsulfonylcarbamoyl)-2-vinylcyclopropyl)-4-(7-methoxy-2-phenylquinolin-4-yloxy)pyrrolidine-2-carboxamide] | < 0.01 µM | 0.01 to 0.1 µM | 0.1 to 1 µM | 0.01 to 0.1 µM | < 0.01 µM |
| C#CCOC(=O)N[C@@H](CN(C)C(=O)CCCl)C(=O)N1C[C@H](Oc2cc(-c3ccccc3)nc3cc(OC)ccc23)C[C@H]1C(=O)N[C@]1(C(=O)NS(=O)(=O)C2CC2)C[C@H]1C=C [Compound I-71] | < 0.01 µM | 0.1 to 1 µM | 0.1 to 1 µM | 0.1 to 1 µM | 0.1 to 1 µM |
| C=CC(=O)NC[C@H](NC(=O)OC1CCCC1)C(=O)N1C[C@H](Oc2cc(-c3ccccc3)nc3cc(OC)ccc23)C[C@H]1C(=O)N[C@]1(C(=O)NS(=O)(=O)C2CC2)C[C@H]1C=C [Compound I-55, Cyclopentyl-(S)-3-acrylamido-1-((2S,4R)-2-((1R,2S)-1-(cyclopropylsulfonylcarbamoyl)-2-vinylcyclopropylcarbamoyl)-4-(7-methoxy-2-phenylquinolin-4-yloxy)pyrrolidin-1-yl)-1-oxopropan-2-ylcarbamate] | < 0.01 µM | 0.1 to 1 µM | 0.1 to 1 µM | 0.1 to 1 µM | < 0.01 µM |
| C#Cc1ccc(S(=O)(=O)NC(=O)[C@@]2(NC(=O)[C@@H]3C[C@@H](Oc4cc(-c5ccccc5)nc5cc(OC)ccc45)CN3C(=O)[C@H](CNC(=O)C=C)NC(=O)OC(C)(C)C)C[C@H]2C=C)cc1 [Compound I-61, t-butyl-(S)-3-acrylamido-1-((2S,4R)-2-((1R,2S)-1-(4-ethynylphenylsulfonylcarbamoyl)-2-vinylcyclopropylcarbamoyl)-4-(7-methoxy-2-phenylquinolin-4-yloxy)pyrrolidin-1-yl)-1-oxopropan-2-ylcarbamate] | 0.01 to 0.1 µM | 1 to 10 µM | 1 to 10 µM | 1 to 10 µM | 0.1 to 1 µM |
| C=C[C@@H]1C[C@]1(NC(=O)[C@@H]1C[C@@H](Oc2cc(-c3ccccc3)nc3cc(OC)ccc23)CN1C(=O)CNC(=O)c1ccc([N+](=O)[O-])cc1F)C(=O)NS(=O)(=O)c1ccccc1 [Compound I-63, (2S,4R)-1-(2-fluoro-4-nitrobenzamidoacetyl)-N-((1R,2S)-1-(phenylsulfonylcarbamoyl)-2-vinylcyclopropyl)-4-(7-methoxy-2-phenylquinolin-4-yloxy)pyrrolidine-2-carboxamide] | 0.1 to 1 µM | 1 to 10 µM | 1 to 10 µM | – | – |
| C=C[C@@H]1C[C@]1(NC(=O)[C@@H]1C[C@@H](Oc2cc(-c3ccccc3)nc3cc(OC)ccc23)CN1C(=O)[C@H](CCC(=O)N[C@H]1COC1=O)NC(=O)OC(C)(C)C)C(=O)NS(=O)(=O)C1CC1 [Compound I-69, t-butyl-(2S)-1-((2S,4R)-2-((1R,2S)-1-(cyclopropylsulfonylcarbamoyl)-2-vinylcyclopropylcarbamoyl)-4-(7-methoxy-2-phenylquinolin-4-yloxy)pyrrolidin-1-yl)-5-((3S)-2-oxooxetan-3-ylamino)-1,5-dioxopentan-2-ylcarbamate] | < 0.01 µM | 0.1 to 1 µM | 0.1 to 1 µM | – | – |
| C=C[C@@H]1C[C@]1(NC(=O)[C@@H]1C[C@@H](Oc2cc(-c3ccccc3)nc3cc(OC)ccc23)CN1C(=O)[C@H](CCC(=O)N[C@@H]1C(=O)O[C@@H]1C)NC(=O)OC(C)(C)C)C(=O)NS(=O)(=O)C1CC1 [Compound I-67, t-butyl-(2S)-1-((2S,4R)-2-((1R,2S)-1-(cyclopropylsulfonylcarbamoyl)-2-vinylcyclopropylcarbamoyl)-4-(7-methoxy-2-phenylquinolin-4-yloxy)pyrrolidin-1-yl)-5-((2R,3S)-2-methyl-4-oxooxetan-3-ylamino)-1,5-dioxopentan-2-ylcarbamate] | < 0.01 µM | < 0.01 µM | < 0.01 µM | 0.1 to 1 µM | 0.01 to 0.1 µM |
| C=CC(=O)N[C@@H](C(=O)N1C[C@H](Oc2cc(-c3ccccc3)nc3cc(OC)ccc23)C[C@H]1C(=O)N[C@]1(C(=O)NS(=O)(=O)C2CC2)C[C@H]1C=C)C(C)(C)C [Compound I-65, (2S,4R)-1-((R)-2-acrylamido-3,3-dimethylbutanoyl)-N-((1R,2S)-1-(cyclopropylsulfonylcarbamoyl)-2-vinylcyclopropyl)-4-(7-methoxy-2-phenylquinolin-4-yloxy)pyrrolidine-2-carboxamide] | 0.1 to 1 µM | 1 to 10 µM | 1 to 10 µM | – | – |
| C=C[C@@H]1C[C@]1(NC(=O)[C@@H]1C[C@@H](Oc2cc(-c3ccccc3)nc3cc(OC)ccc23)CN1C(=O)C(CN(C)C(=O)C#CC)NC(=O)OC(C)(C)C)C(=O)NS(=O)(=O)c1ccccc1 (stereo in doubt) [Compound I-51, tert-butyl-(S)-1-((2S,4R)-4-(7-methoxy-2-phenylquinolin-4-yloxy)-2-((1R,2S)-1-(phenylsulfonylcarbamoyl)-2-vinylcyclopropylcarbamoyl)pyrrolidin-1-yl)-3-(N-methylbut-2-ynamido)-1-oxopropan-2-ylcarbamate] | 0.01 to 0.1 µM | – | 1 to 10 µM | – | – |
